Measurements published in paper PMC10295794, “Pharmacokinetic Analysis of Zonarol, a Marine Algal Hydroquinone, in Mice Using HPLC with Fluorescence Detection” (Antibiotics, 2023).
Like-named read-outs stand apart in the source and are kept apart here.

Assays:
[1] = cited from earlier work
[2] = cited from earlier work; remark: listed apart in the source
[3] = Stability of zonarol with mice plasma during HPLC analysis; assay type: in vitro ADME
Experimental: (§1) HPLC analysis was carried out on a Shimadzu-20A series instrument (Shimadzu, Japan) connected to a fluorescence detector (RF-10A xl, Shimadzu, Japan). The signals from the fluorescence system were transmitted to LC Solution software for the purposes of analyzing and calculating the peak areas. Chromatographic separation was carried out on an RPAQUEOUS-AR-5 (4.6 × 250 mm) column. The HPLC was operated with a gradient mobile phase system consisting of water containing 0.1% formic acid (phase A) and methanol (phase B) at a flow rate of 1 mL/min. The pump was programmed as follows: phase B was maintained at 40% for the first 5 min, increased from 40% to 80% within the next 25 min, maintained at 80% for the next 10 min, increased to 100% for 10 min, and then decreased back to 40% for 10 min (total gradient time: 60 min). A 50 μL sample was injected into the system with the auto-sampler and conditioned at 4 °C, and the column temperature was maintained at 30 °C.
The stability of low, medium, and high concentrations of 20, 80, and 320 ng/mL of zonarol mixed with the plasma of mice was performed under different conditions, including storage at room temperature for 4 h, storage at 37 °C for 4 h, and storage at 4 °C for 12 h and subjection to three freeze–thaw cycles. Next, 20 μL aliquots of low, medium, and high concentration zonarol solutions ([…]) were added to polypropylene tubes with 80 μL of blank plasma. Then, 900 μL of MeCN was added to the mixture, after being incubated under the different conditions described above, for deproteinization. The final nominal concentrations of zonarol were 20, 80, and 320 ng/mL. After deproteinization, the mixtures were centrifuged at […] for 5 min, and the supernatants were used for HPLC analysis. The accuracy of the assay was determined by comparing the nominal concentrations with the corresponding calculated concentrations via linear regression. Every concentration of zonarol was measured three times.

[4] = system: DSS-induced ulcerative colitis; set-up: method as in PMID 25409433; details: mice, oral 10 mg/kg/day for 2 weeks; cited from earlier work
diet-induced NAFLD = system: diet-induced NAFLD; set-up: method as in PMID 34684455; details: mice, oral 10 mg/kg/day for 2 weeks; cited from earlier work
[5] = system: carrageenan-induced paw edema; set-up: method as in PMID 25409433; details: mice, oral bolus 62.5 mg/kg at −0.5 h; edema at 2 and 4 h after carrageenan; cited from earlier work
[6] = Plasma concentration of zonarol after oral or intravenous administration in mice (HPLC-FI, non-compartmental analysis); assay type: in vivo; details: for time within which plasma concentration remained over the LOQ: LOQ 11.1 ng/mL
Experimental: as §1
Male ddY mice (8 weeks old, 40 ± 2 g) were purchased from SLC Inc. (Shizuoka, Japan) and were acclimated to laboratory conditions for 1 week before experiment. The mice were housed in an air-conditioned room at 23 ± 2 °C with 12 h/12 h light–dark illumination cycles at a constant humidity (55 ± 10%) with free access to food (MR stock, Nosan, Japan) and tap water. Exsanguination and autopsy were performed under anesthesia with an overdose of isoflurane (Mylan EPD Ltd., Canonsburg, PA, USA). All procedures were reviewed and approved (R3-9 and R4-2) in terms of animal welfare by the Animal Ethics Committee of Tokyo University of Marine Science and Technology.
The mice were fasted for 12 h before the oral administration of zonarol. Blood samples were collected from the mouse tails at 15, 30, 45, 60, 90, 120, 240, and 480 min after the oral administration of 100 mg/kg of zonarol (n = 5).
The mice were not fasted before the intravenous administration of zonarol but were fasted after the test started. Blood samples were collected from the mouse tails, via the caudal veins, at 5, 15, 30, 45, 60, 90, 120, and 240 min after the intravenous administration of 10 mg/kg of zonarol (n = 6).
Blood samples were immediately centrifuged at 9000 rpm for 5 min. After centrifugation, a 20 μL aliquot of plasma was mixed with 80 μL of MeCN for deproteinization. Then, the mixture was centrifuged at 9000 rpm for 5 min, and the supernatant was used for HPLC analysis.
Data were expressed as the mean ± standard deviation (SD) for the in vitro and the animal experiments. The number of the data is described for each experiment. The pharmacokinetic parameters were calculated with Phoenix Winnonlin software (version 8.1) while using a non-compartmental model. The abnormal data were eliminated after being analyzed via a Box-type drawing with SPSS software (SPSS Inc., Chicago, IL, USA).

[7] = system: carrageenan-induced paw edema; assay: Carrageenan-induced paw edema in mice after oral bolus zonarol; assay type: in vivo; details: estimated from current p.o. 100 mg/kg plasma data and earlier 62.5 mg/kg edema result (ref 16)
[8] = Tissue distribution of zonarol after intravenous administration in mice; assay type: in vivo; details: for concentration at 30 min / concentration at 15 min: mouse, iv, 10 mg/kg; for concentration at 30 min: brain; for concentration at 15 min: 15 min after administration
Experimental: as §1
Blank tissue homogenates were prepared by collecting the liver, kidney, and brain from normal mice after anesthetization. Blank tissue homogenates were used to determine the specificity of zonarol. In the experimental mice, the livers, kidneys, and brains were collected at 15, 30, 60, 120 min after the intravenous administration, via the caudal veins, of 10 mg/kg of zonarol (n = 7). The tissue with added distilled water (mass/volume = 1:4) was homogenized.
Next, a 50 μL of tissue homogenate was mixed with 200 μL of MeCN for deproteinization. Then, the mixture was centrifuged at 9000 rpm for 5 min, and the supernatant was used for HPLC analysis.

[9] = storage at 4 °C for 12 h, prepared 20 ng/mL
[10] = storage at 4 °C for 12 h, prepared 80 ng/mL
[11] = storage at 4 °C for 12 h, prepared 320 ng/mL
[12] = storage at 37 °C for 4 h, prepared 20 ng/mL
[13] = storage at 37 °C for 4 h, prepared 80 ng/mL
[14] = storage at 37 °C for 4 h, prepared 320 ng/mL
[15] = storage at RT for 4 h, prepared 20 ng/mL
[16] = storage at RT for 4 h, prepared 80 ng/mL
[17] = storage at RT for 4 h, prepared 320 ng/mL
[18] = three cycles of freeze-thaw, prepared 20 ng/mL
[19] = three cycles of freeze-thaw, prepared 80 ng/mL
[20] = three cycles of freeze-thaw, prepared 320 ng/mL
[21] = male, ddY, mouse, plasma, po, p.o. 100 mg/kg, n = 5, mean ± SD

## fucoxanthin
[1]
  bioavailability: 0.06%
[2]; due to hydrophobic properties
  passage through the BBB: pass through the BBB

## C=C1CC[C@@H]2C(C)(C)CCC[C@@]2(C)[C@@H]1Cc1cc(O)ccc1O [zonarol]
[3]; all storage conditions and concentrations of Table 2
  accuracy of each group (plasma stability): 90.8–112.9%
[3]; [9]
  Accuracy (detected/prepared × 100): 104.9%
  Zonarol detected in plasma: 21.0 ± 1.33 ng/mL
[3]; [10]
  Accuracy (detected/prepared × 100): 92.3%
  Zonarol detected in plasma: 73.8 ± 1.98 ng/mL
[3]; [11]
  Accuracy (detected/prepared × 100): 104.4%
  Zonarol detected in plasma: 334.2 ± 10.70 ng/mL
[3]; [12]
  Accuracy (detected/prepared × 100): 105.8%
  Zonarol detected in plasma: 21.2 ± 0.33 ng/mL
[3]; [13]
  Accuracy (detected/prepared × 100): 90.8%
  Zonarol detected in plasma: 72.6 ± 0.53 ng/mL
[3]; [14]
  Accuracy (detected/prepared × 100): 95.2%
  Zonarol detected in plasma: 304.6 ± 6.57 ng/mL
[3]; [15]
  Accuracy (detected/prepared × 100): 112.9%
  Zonarol detected in plasma: 22.6 ± 1.24 ng/mL
[3]; [16]
  Accuracy (detected/prepared × 100): 91.2%
  Zonarol detected in plasma: 73.0 ± 1.72 ng/mL
[3]; [17]
  Accuracy (detected/prepared × 100): 97.2%
  Zonarol detected in plasma: 311.1 ± 2.76 ng/mL
[3]; stored at 4 °C
  time zonarol remained stable in plasma: at least 12 h
[3]; stored at RT or 37 °C for 4 h
  change of zonarol content in plasma: did not change
[3]; [18]
  Accuracy (detected/prepared × 100): 107.9%
  Zonarol detected in plasma: 21.6 ± 1.44 ng/mL
[3]; [19]
  Accuracy (detected/prepared × 100): 94.4%
  Zonarol detected in plasma: 75.5 ± 2.38 ng/mL
[3]; [20]
  Accuracy (detected/prepared × 100): 101.7%
  Zonarol detected in plasma: 325.5 ± 4.56 ng/mL
[3]; three freeze–thaw cycles
  effect of three freeze–thaw cycles on quantification in plasma: no effect
[4]
  effect on DSS-induced ulcerative colitis: suppressed
diet-induced NAFLD
  effect on diet-induced NAFLD: prevented
[5]
  effect on carrageenan-induced paw edema: significantly suppressed
[6]; i.v. 10 mg/kg
  time within which plasma concentration remained over the LOQ: ≤ 240 min
[6]; male, ddY, mouse, plasma, iv, i.v. 10 mg/kg, 0 to 240 min, n = 6, mean ± SD, read-out: AUC (AUC0-240) (converted)
  AUC(0-t): 608 ng·h/mL
[6]; male, ddY, mouse, plasma, iv, i.v. 10 mg/kg, 5 min
  concentration at 5 min: 878 ± 371 ng/mL
[6]; male, ddY, mouse, plasma, oral, (p.o. AUC/p.o. dose)/(i.v. AUC/i.v. dose) × 100, p.o. 100 mg/kg, i.v. 10 mg/kg
  bioavailability: 25%
[6]; male, ddY, mouse, plasma, po, p.o. 100 mg/kg, 0 to 480 min, n = 5, mean ± SD, read-out: AUC (AUC0-480) (converted)
  AUC(0-t): 1520 ng·h/mL
[6]; [21]
  Cmax: 723 ± 75.9 ng/mL
  Tmax: 1.25 h
[6]; p.o. 100 mg/kg
  time within which plasma concentration remained over the LOQ: ≤ 480 min
[7]
  plasma zonarol required to induce suppressive effects on edema formations: approximately 300 ng/mL
[8]; i.v. 10 mg/kg bolus, data not shown
  tissue/body weights (g/g) and visual observation of each tissue vs. mice without bolus treatment: did not reflect any marked differences
[8]; bolus i.v. 10 mg/kg BW, 30 min, read-out: maximal distribution of zonarol in the brain
  concentration at 30 min: 2520 ± 1330 ng/g
[8]; i.v. 10 mg/kg, 30 min after administration, n = 7, mean ± SD, read-out: zonarol content in brain (peak)
  concentration at 30 min: 2530 ± 1330 ng/g
[8]; kidney, i.v. 10 mg/kg, n = 7, mean ± SD, read-out: zonarol content in kidney (highest)
  concentration at 15 min: 1910 ± 1800 ng/g
[8]; liver, i.v. 10 mg/kg, n = 7, mean ± SD, read-out: zonarol content in liver (highest)
  concentration at 15 min: 1320 ± 1040 ng/g

## O=c1c(O)c(-c2ccc(O)c(O)c2)oc2cc(O)cc(O)c12 [quercetin]
[1]; variability depended on gastric contents during ingestion
  absolute bioavailability: 16%
[2]; 0.1%-quercetin-containing diet for 11 weeks
  accumulation in the brain: did not induce the accumulation
